Results as given in patent US4562275A, “Antitumor platinum complexes” (priority 1984, dated 1985).
Where “and” joins values, the source holds several entries; their conditions need not be identical. Equal entries are not always repeated.

Columns and labels:
B16 melanoma = test: Antitumor activity vs ip B16 melanoma in mice; type: in vivo, mouse; parameters: O.D.: unit not given here; details: for O.D.: ip B16 (3×; 9×); for Max. % T/C: ip B16 (3×; 9×): q4d × 3 or qd 1-9, ip, dying mice only
Excerpt: (§1) The methods used to evaluate the platinum complexes for antitumor activity and toxicity in animals are summarized below. These methods have been published elsewhere in more detail (Rose, et al. Cancer Treat. Rep. 66: 135, 1982; Florczyk, et al, Cancer Treat. Rep. 66: 187, 1982).
(§2) The parent line of L1210 leukemia (L1210) was maintained in DBA/2 mice by ip transplantation of 10^5 cells at weekly intervals. […] B16 malenoma (B16) was maintained by sc transplant in C57BL/6 mice every two weeks. Madison 109 lung carcinoma (M109) and colon 26 carcinoma (C26) were maintained by sc transplant in BALB/c mice every two weeks.
(§3) The level and route of tumor inoculum, host, group size, and drug treatment schedule and route for each tumor type are summarized below in Table 6. Each complex was evaluated initially against L1210 at 4 dose levels per schedule selected on the basis of lethality data provided by the Wadley Institute.
(§4) The L1210 experiments were terminated on Day 30 whereas the B16, C26 and M109 experiments were terminated on Day 60 (some C26 experiments were terminated on Day 75). Mice alive at the termination day were autopsied and considered cured if no tumor was visible. […] A complex was considered active if it produced a % T/C value ≥125.

[1] = system: L1210/CDDP (cisplatin resistant line of L1210 leukemia); test: Antitumor activity vs cisplatin-resistant L1210 leukemia (L1210/CDDP) in mice; type: in vivo, mouse; details: for Cures/total / O.D. (optimal dose): Day 1; for Max % T/C: Day 1, dying mice only
Excerpt: Results of antitumor testing against the transplantable mouse tumors L1210 leukemia, cisplatin-resistant L1210 leukemia, B16 melanoma, Madison 109 lung carcinoma and colon 26 carcinoma are shown below in Tables 1 and 2. […]
as §1, §2
as §3, with “Institute. In subsequent experiments with the other tumors the complexes were evaluated at a minimum of 3 dose levels selected on the basis of maximum tolerated levels in the L1210 experiments. Cisplatin-treated groups and a saline-treated (or untreated) tumor control group were included in each experiment.” for “Institute.”
as §4

L1210 leukemia = test: Antitumor activity vs transplantable L1210 leukemia (ip) in mice; type: in vivo, mouse; details: for Max % T/C: dying mice only; for OD (optimum dose): optimum dose from the L1210 test
Excerpt: The antitumor activities of the complexes provided by the present invention have been determined against L-1210 leukemia in the mouse and, for certain of the complexes, against other mouse tumor systems.
(§5) Results of antitumor testing against the transplantable mouse tumors L1210 leukemia, cisplatin-resistant L1210 leukemia, B16 melanoma, Madison 109 lung carcinoma and colon 26 carcinoma are shown below in Tables 1 and 2.
In Table 1 are shown the maximum % T/C values obtained for each platinum compound versus L1210 leukemia using both single and qd 1→5 dosing.
as §1, §2
as §3, with “Institute. In subsequent experiments with the other tumors the complexes were evaluated at a minimum of 3 dose levels selected on the basis of maximum tolerated levels in the L1210 experiments. Cisplatin-treated groups and a saline-treated (or untreated) tumor control group were included in each experiment.” for “Institute.”
as §4

BDF1 mice [2] = test: Nephrotoxicity: effect on blood urea nitrogen (BUN) in BDF1 mice; details: for BUN↑, Mouse: effect relative to cisplatin
Protocol: The other compounds were in such short supply that they were tested for effects on BUN values using the optimum dose (O.D.) from the L1210 test for dose selection.
The toxicity studies were done in male BDF1 mice (25-29 gm) and castrated male Fitch ferrets (1-1.5 kg).
The complexes that were active against L1210 were evaluated for nephrotoxicity by determining their effects on blood urea nitrogen (BUN) levels in mice. Groups of 40-50 mice/experiment were bled from the retro-orbital plexus and individual BUN values determined by a modified urease method using a Centrifichem System 400. The test complex, or saline for controls, was given at several dose levels (5-10 mice/dose) in single ip injections. The highest dose of the complex usually corresponded to its LD50 value or 1.5 times its optimal single dose in the L1210 experiment. At least two lower doses were included to evaluate dose-related effects. The BUN values were measured 4 and 7 days after dosing. BUN values ≥30 mg% were considered indicative of drug-induced nephrotoxicity.

C26 carcinoma = test: Antitumor activity vs ip C26 (colon 26) carcinoma in mice; type: in vivo, mouse; parameters: O.D.: unit not given here; details: for O.D.: ip C26 (2×; 4×); for Max. % T/C: ip C26 (2×; 4×): q3d × 2 or qd 1-4, ip, dying mice only
Excerpt: as §5, §1, §2
as §3, with “Institute. In subsequent experiments with the other tumors the complexes were evaluated at a minimum of 3 dose levels selected on the basis of maximum tolerated levels in the L1210 experiments. Cisplatin-treated groups and a saline-treated (or untreated) tumor control group were included in each experiment.” for “Institute.”
as §4
8 q3d^b × 2 or qd 1-4, ip

M109 carcinoma = test: Antitumor activity vs ip M109 (Madison 109 lung) carcinoma in mice; type: in vivo, mouse; parameters: O.D.: unit not given here; details: for O.D.: ip M109 (2×; 4×); for Max. % T/C: ip M109 (2×; 4×): q3d × 2 or qd 1-4, ip, dying mice only
Excerpt: as §5, §1, §2
as §3, with “Institute. In subsequent experiments with the other tumors the complexes were evaluated at a minimum of 3 dose levels selected on the basis of maximum tolerated levels in the L1210 experiments. Cisplatin-treated groups and a saline-treated (or untreated) tumor control group were included in each experiment.” for “Institute.”
as §4
8 q3d^a × 2 or qd 1-4, ip

BDF1 mice [3] = test: Deaths (D.14) in the BUN test in BDF1 mice; type: in vivo, mouse
ferret = test: Emetic effects (and lethality) in the ferret; type: in vivo, castrated male Fitch ferrets
Protocol: Selected complexes were evaluated for emetic effects in ferrets. […] The time to the first emetic episode (retching and expulsion of vomitus) and the number of episodes were recorded. […] Subsequent test doses were selected based on the emetic response and lethality of the initial dose.

[4] = Solubility stated in the preparation examples
[5] = L1210, single dose Day 1, ip, (a), (b) determinations
[6] = L1210, single dose Day 1, ip, dose giving the Max % T/C, same order

| Compound | O.D. (B16 melanoma) | Max. % T/C (B16 melanoma) | Cures/total [1] | O.D. (optimal dose) [1] | Max % T/C [1] | O.D. (optimal dose) (L1210 leukemia; L1210, QD 1 → 5, ip) | Max % T/C (L1210 leukemia; L1210, QD 1 → 5, ip) | Max % T/C (L1210 leukemia; [5]) | O.D. (optimal dose) (L1210 leukemia; [6]) | Incidence of BUN > 30 mg % (BDF1 mice [2]; 16 mg/kg ip) | Incidence of BUN > 30 mg % (BDF1 mice [2]; 24 mg/kg ip) | BUN↑, Mouse (BDF1 mice [2]) | O.D. (C26 carcinoma) | Max. % T/C (C26 carcinoma) | O.D. (M109 carcinoma) | Max. % T/C (M109 carcinoma) | OD (optimum dose) (L1210 leukemia) | Deaths D.14 (BDF1 mice [3]; 16 mg/kg ip) | Deaths D.14 (BDF1 mice [3]; 24 mg/kg ip) | also measured |
| --- | --- | --- | --- | --- | --- | --- | --- | --- | --- | --- | --- | --- | --- | --- | --- | --- | --- | --- | --- | --- |
| N[C@@H]1CCCC[C@H]1N.O=C([O-])CCC(=O)C(=O)[O-].[Pt+2] (relative stereo) [Example 14, 2-ketoglutarato trans(-)-1,2-diaminocyclohexane platinum(II)] | 3 | 135% | 2/6 | 12 mg/kg/inj | 169% | 16 mg/kg/inj | 250% | 214% and 193% | 16 mg/kg/inj |  |  |  |  |  |  |  |  |  |  |  |
| N[C@@H]1CCCC[C@H]1N.[O-]B([O-])O.[Pt+2] [Example 1, borato trans(-)-1,2-diaminocyclohexane platinum(II)] | 1 | 150% | 2/6 | 8 mg/kg/inj | 188% | 2 mg/kg/inj | 243% | 214% and 242% | 16 mg/kg/inj and 8 mg/kg/inj | 0/5 | 0/3 | 0 | 5 | 134% | 2 | 147% | 16 mg/kg/ip | 0/5 | 3/5 |  |
| Cc1cn(C2CC(O)C(COP(=O)([O-])[O-])O2)c(=O)[nH]c1=O.NC1CCCCC1N.[Pt+2] (stereo not drawn) [Example 6, thymidylato trans(-)-1,2-diaminocyclohexane platinum(II)] | 6 | 177% |  | 20 mg/kg/inj | 175% | 10 mg/kg/inj | 221% | 200% and 207% | 40 mg/kg/inj and 45 mg/kg/inj |  |  | 0 | 36 | 109% | 12 | 95% | 40 mg/kg/ip |  |  | Emesis Episodes (ferret; 32 mg/kg iv): 13.5; Emesis onset in responding animals (ferret; 32 mg/kg iv): 17.5 min; No. With Emesis/No. tested (ferret; 32 mg/kg iv (lethal dose), 6 h observation): 2/2; Lethal dose (ferret; ferret, doses marked * = Lethal dose): 32 mg/kg iv; Incidence of BUN > 30 mg % (BDF1 mice [2]; 40 mg/kg ip): 0/5; Incidence of BUN > 30 mg % (BDF1 mice [2]; 60 mg/kg ip): 0/5; Deaths D.14 (BDF1 mice [3]; 40 mg/kg ip): 0/5; Deaths D.14 (BDF1 mice [3]; 60 mg/kg ip): 0/5 |
| NCC1(N)CCCCCCC1.[O-]B([O-])O.[Pt+2] [Example 13, borato 1-aminomethylcyclooctylamine platinum(II)] | 2 | 167% | 2/6 | 8 mg/kg/inj | 256% | 4 mg/kg/inj | 207% | 229% and 207% | 16 mg/kg/inj | 0/5 | 0/5 | 0 | 8 | 88% | 3 | 81% | 16 mg/kg/ip | 0/5 | 0/5 | Ratio of Max. % T/C Complex/cDDP (B16 melanoma; ip B16, relative to concomitant cisplatin): .90; Solubility in methanol ([4]; methanol): soluble; Solubility in water ([4]; water): soluble; Ratio of Max. % T/C Complex/cDDP (C26 carcinoma; ip C26, relative to concomitant cisplatin): .61; Ratio of Max. % T/C Complex/cDDP (M109 carcinoma; ip M109, relative to concomitant cisplatin): .52 |
